Key:
Type in all cases: cell-based
[1] = tested on: AR-expressing (AR-positive) prostate cancer cell lines; assay: MTT cell viability assay, AR-positive cells; details: growth inhibition grade, 6 days
Method: (§1) FIGS. 3A-Q. Growth inhibitory effects of selected compounds. The indicated cells were exposed to the indicated compounds for 6 days; cell viability was measured by MTT assay, and specific reporters were assayed using literature conditions. Results were normalized to that of vehicle control. Experiments were performed in quadruplicate; results are means±s.d.
(§2) JN053 and JN138-JN156 were synthesized and tested in biochemical and cell biologic assays that have been described elsewhere. The JN compounds were first studied in cell viability assays (MTT assay) to determine the efficacy and specificity of the JN compounds for inhibition of prostate cancer cell lines.
(§3) The growth inhibitory effect of the JN compounds was assessed through the MTT assay, which assesses the total number of viable cells in vitro. These experiments were performed in AR-expressing (AR-positive) prostate cancer cell lines to assess on target effects and AR-null (AR-negative) prostate cancer cell lines to assess off target effects (i.e. specificity).
AR-expressing (AR-pos): • LNCaP: full length AR • LNCaP AR: overexpression of full length AR • 22Rv1: full length AR and ARV7 • VCaP: full length AR and ARV7 • CWR22: full length AR and ARV7

androgen receptor (AR) = target: T1, androgen receptor (AR) (Homo sapiens, UniProt P10275); assay: MMTV-luciferase reporter assay (AR-dependent); details: inhibition grade
T1 construct: either endogenously or exogenously express the full-length AR and ARV7
T1 sequence (P10275 whole entry): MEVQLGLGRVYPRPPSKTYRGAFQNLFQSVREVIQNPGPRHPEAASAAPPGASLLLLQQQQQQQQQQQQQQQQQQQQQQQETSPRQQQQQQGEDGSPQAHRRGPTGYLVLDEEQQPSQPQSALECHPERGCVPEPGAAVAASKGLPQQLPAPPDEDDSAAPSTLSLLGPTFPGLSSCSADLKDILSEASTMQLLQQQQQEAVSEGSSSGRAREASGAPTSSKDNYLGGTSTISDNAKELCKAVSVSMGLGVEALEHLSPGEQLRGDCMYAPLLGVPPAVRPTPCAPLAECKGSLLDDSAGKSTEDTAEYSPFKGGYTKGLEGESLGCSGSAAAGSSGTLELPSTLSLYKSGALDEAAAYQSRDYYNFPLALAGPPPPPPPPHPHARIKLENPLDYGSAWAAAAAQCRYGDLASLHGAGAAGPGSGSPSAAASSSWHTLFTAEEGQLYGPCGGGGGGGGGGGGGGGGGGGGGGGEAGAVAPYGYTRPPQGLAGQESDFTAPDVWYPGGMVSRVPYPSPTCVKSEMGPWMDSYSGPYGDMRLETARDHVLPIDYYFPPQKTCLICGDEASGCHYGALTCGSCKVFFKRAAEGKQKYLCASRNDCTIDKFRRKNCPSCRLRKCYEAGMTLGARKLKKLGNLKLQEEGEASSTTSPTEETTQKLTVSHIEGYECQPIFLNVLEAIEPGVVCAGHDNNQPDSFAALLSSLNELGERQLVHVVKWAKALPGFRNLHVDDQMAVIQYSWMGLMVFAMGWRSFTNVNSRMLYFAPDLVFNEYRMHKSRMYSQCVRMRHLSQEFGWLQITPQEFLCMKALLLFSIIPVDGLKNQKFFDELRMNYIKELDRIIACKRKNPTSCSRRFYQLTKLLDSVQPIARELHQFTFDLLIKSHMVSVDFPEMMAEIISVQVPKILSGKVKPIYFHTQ
Method: (§4) The biochemical assays include reporter assays to determine the activity and specificity of these JN compounds to inhibit the transcriptional activity of the androgen receptor (AR). […] The reporter assays were performed in replicates and across a wide range of concentrations (generally […]).
(§5) The reporter systems utilized include: • MMTV-luciferase: AR-dependent • ARE-luciferase: AR-dependent • GRE-luciferase: glucocorticoid receptor (GR)-dependent • CRE-luciferase: CREB-dependent • AP1-luciferase: AP1 (jun and fos family)-dependent: • AR-TAD-luciferase: dependent on AR transactivation domain • CREB-TAD-luciferase: dependent on CREB transactivation domain • JUN-TAD-luciferase: dependent on c-Jun transactivation domain

[2] = tested on: AR-null (AR-negative) prostate cancer cell lines; assay: MTT cell viability assay, AR-negative cells; details: growth inhibition grade, 6 days
Method: as §1, §2, §3

ARΔ567 = target: T2, ARΔ567 (Homo sapiens, UniProt P10275); assay: Western blot protein degradation with cycloheximide, HEK-293 cells; details: ectopically expressed
T2 construct: expressed in transfected cells; host or cells: HEK-293 cells
T2 sequence (P10275 with tags, fused parts or gaps limits assumed): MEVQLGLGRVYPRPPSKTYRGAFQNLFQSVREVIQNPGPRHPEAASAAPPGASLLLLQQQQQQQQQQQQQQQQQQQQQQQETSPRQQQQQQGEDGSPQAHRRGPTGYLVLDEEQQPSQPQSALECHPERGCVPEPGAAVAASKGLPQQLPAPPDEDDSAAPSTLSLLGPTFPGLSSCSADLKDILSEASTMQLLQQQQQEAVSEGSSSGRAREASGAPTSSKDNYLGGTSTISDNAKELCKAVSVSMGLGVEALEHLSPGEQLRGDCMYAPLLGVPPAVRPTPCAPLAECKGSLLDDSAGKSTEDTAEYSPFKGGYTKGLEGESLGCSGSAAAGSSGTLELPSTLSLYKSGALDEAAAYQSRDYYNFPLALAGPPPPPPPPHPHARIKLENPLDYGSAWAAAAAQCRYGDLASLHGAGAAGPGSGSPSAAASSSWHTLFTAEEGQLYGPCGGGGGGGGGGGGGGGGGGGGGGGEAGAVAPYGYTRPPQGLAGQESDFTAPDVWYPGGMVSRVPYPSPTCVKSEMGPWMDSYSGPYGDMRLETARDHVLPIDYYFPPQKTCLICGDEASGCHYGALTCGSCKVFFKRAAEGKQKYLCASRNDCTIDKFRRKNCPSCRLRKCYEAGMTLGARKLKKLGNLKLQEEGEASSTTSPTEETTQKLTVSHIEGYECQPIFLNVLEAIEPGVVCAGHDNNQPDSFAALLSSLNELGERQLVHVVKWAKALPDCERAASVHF
Method: (§6) LNCaP-AR cells were treated with JN103 and cycloheximide (to inhibit translation) at the indicated doses and times (FIG. 11A). Cell protein was subjected to Western blotting for the indicated proteins. The same tests were performed on LNCaP-95 cells, HEK-293 cells engineered to ectopically express ARΔ567, PC3 cells, and T47D breast cancer cells.

[3] = target: T3, full-length AR overexpressed in LNCaP-AR cells (Homo sapiens, UniProt P10275); assay: Western blot protein degradation with cycloheximide, LNCaP-AR cells
T3 construct: the full-length AR overexpressed in LNCaP-AR cells; expressed in transfected cells; host or cells: LNCaP-AR cells
T3 sequence (P10275 whole entry): as the sequence (P10275 whole entry) above
Method: as §6

ER or PR = assay: Western blot protein degradation, T47D breast cancer cells, ER and PR; details: breast cancer cell line that co-expresses AR
Method: as §6

AR = target: T4, AR (Homo sapiens, UniProt P10275); assay: Western blot protein degradation, T47D breast cancer cells, AR; details: breast cancer cell line that co-expresses AR, ER, and PR (T47D)
T4 construct: a breast cancer cell line that co-expresses AR, ER, and PR; endogenous in cells; host or cells: T47D breast cancer cells
Method: as §6

[4] = tested on: 22Rv1 (full-length and splice variant AR); assay: Colony formation assay, 22Rv1; details: 22Rv1, 2-10 μm, two weeks
Method: (§7) DU145, PC3LNCaP-AR (full-length AR), 22Rv1 (full-length and splice variant AR), and VCaP cells (400 cells/well of 6-well plate) were treated with indicated 0 (pure DMSO), 2, 4, 6, 8, 10 μm of JN103 for two weeks. Colonies were visualized with methylene blue staining.

[5] = tested on: breast cancer cell line (T47D); assay: MTT assay on non-prostate cancer cell lines; details: 2-8 μm, 5 days
Method: The growth-inhibitory effects of JN103 were also assessed in MTT assays on 20 non-prostate cancer cell lines. (FIG. 13). Cells were exposed to 0 (pure DMSO), 2, 4, 6, and 8 μm of JN103 for 5 days and subjected to MTT assay to determine cell viability. Results are means of quadruplicates.

PC3 cell = assay: Colony formation assay, PC3; details: PC3, at high concentrations, two weeks
Method: as §7

[6] = tested on: LNCaP-AR (full-length AR); assay: Colony formation assay, LNCaP-AR; details: 2-10 μm, two weeks
Method: as §7

full-length AR and AR-V7 = assay: Western blot protein degradation with cycloheximide, LNCaP-95 cells; details: endogenously expressed
Method: as §6

actin or the GR = assay: Western blot protein degradation, other proteins; details: FIGS. 11(A)-11(D)
Method: as §6

[7] = tested on: AR transcriptional program; assay: Whole transcriptomic RNA-sequencing, gene set expression analysis; details: LNCaP-AR and 22Rv1 cells, 10 μM, 8 hours
Method: Negative enrichment scores (NES are shown for the AR transcriptional program.
Whole transcriptomic RNA-sequencing was performed for two castration resistant cell lines (LNCaP-AR and 22Rv1), which were exposed to JN103 (10 μM) for 8 hours. The experimental results as determined by gene set expression analysis (FIG. 10) show negative enrichment scores (NES) for the AR transcriptional program.

[8] = tested on: VCaP (full-length and splice variant AR); assay: Colony formation assay, VCaP; details: 2-10 μm, two weeks
Method: as §7

AR-null DU145 cells = assay: Colony formation assay, DU145; details: DU145, 2-10 μm, two weeks
Method: as §7

[9] = tested on: CREB transactivation domain; assay: CREB-TAD-luciferase reporter assay; details: inhibition grade
Method: (§8) The biochemical assays include reporter assays to determine the activity and specificity of these JN compounds to inhibit the transcriptional activity of the androgen receptor (AR). The reporter assays were conducted in various cell lines that either endogenously or exogenously express the full-length AR and ARV7, a constitutively active splice variant that is resistant to all clinically available AR targeting compounds. The reporter assays were performed in replicates and across a wide range of concentrations (generally […]).
as §5

[10] = target: AR transactivation domain (Homo sapiens, UniProt P10275); assay: AR-TAD-luciferase reporter assay; details: inhibition grade
Sequence of AR transactivation domain (P10275 1-559 limits assumed): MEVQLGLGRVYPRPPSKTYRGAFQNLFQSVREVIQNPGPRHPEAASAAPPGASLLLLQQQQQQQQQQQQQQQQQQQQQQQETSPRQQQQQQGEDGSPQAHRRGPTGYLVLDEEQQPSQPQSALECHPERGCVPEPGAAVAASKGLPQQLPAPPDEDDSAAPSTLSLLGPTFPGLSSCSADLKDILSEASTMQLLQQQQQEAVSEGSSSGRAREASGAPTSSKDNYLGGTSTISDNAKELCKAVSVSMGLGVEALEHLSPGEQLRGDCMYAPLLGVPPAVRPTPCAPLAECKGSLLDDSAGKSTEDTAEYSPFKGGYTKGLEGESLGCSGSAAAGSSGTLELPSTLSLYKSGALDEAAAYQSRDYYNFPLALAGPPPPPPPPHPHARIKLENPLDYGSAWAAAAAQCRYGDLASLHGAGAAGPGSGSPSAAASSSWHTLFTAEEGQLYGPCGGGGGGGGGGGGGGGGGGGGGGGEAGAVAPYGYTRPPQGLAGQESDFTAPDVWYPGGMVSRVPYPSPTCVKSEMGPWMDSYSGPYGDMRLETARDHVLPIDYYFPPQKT
Method: as §4, §5

[11] = target: glucocorticoid receptor (GR) (Homo sapiens, UniProt P04150); assay: GRE-luciferase reporter assay; details: GR-dependent, inhibition grade
Sequence of glucocorticoid receptor (GR) (P04150 whole entry, species assumed): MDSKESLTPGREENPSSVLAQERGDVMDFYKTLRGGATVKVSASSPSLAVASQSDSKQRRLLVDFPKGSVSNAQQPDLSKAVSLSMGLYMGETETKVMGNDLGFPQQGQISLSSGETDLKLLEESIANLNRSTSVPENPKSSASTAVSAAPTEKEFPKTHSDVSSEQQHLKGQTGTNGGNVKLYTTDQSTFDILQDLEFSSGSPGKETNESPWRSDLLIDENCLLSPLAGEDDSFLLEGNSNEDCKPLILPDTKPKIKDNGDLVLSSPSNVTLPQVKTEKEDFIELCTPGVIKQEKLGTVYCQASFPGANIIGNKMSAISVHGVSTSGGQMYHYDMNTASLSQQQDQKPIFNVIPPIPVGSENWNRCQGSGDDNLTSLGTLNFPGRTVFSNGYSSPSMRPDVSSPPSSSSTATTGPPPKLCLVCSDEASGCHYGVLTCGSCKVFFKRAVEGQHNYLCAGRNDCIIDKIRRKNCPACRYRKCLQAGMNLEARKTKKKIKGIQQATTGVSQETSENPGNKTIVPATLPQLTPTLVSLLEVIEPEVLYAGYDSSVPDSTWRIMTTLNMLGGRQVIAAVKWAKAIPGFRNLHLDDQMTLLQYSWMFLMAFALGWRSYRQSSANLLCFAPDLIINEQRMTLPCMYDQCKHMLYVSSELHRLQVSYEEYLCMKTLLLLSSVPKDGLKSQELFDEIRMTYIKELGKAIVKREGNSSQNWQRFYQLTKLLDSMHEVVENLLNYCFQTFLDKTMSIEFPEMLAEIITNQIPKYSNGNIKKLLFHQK
Method: as §8, §5

AP1 (jun and fos family) = assay: AP1-luciferase reporter assay; details: inhibition grade
Method: as §8, §5

[12] = tested on: c-Jun transactivation domain; assay: JUN-TAD-luciferase reporter assay; details: inhibition grade
Method: as §8, §5

Row | Compound | MTT AR-Pos [1] | MTT AR Neg [2] | other results
1 | C=C1CC(c2ccc(OC)cc2)=C(c2ccccc2)C1=O [JN053] | LOW | LOW | MMTV (androgen receptor (AR)): MED
2 | C=C(C)C(=O)NC(=O)/C(=C/c1ccc(Cl)cc1)c1ccc(F)cc1 [JN103, (E)-3-(4-Chlorophenyl)-2-(4-fluorophenyl)-N-methacryloylacrylamide] | – | – | degradation of ARΔ567 (ARΔ567): potently induces time- and dose-dependent degradation; degradation of full-length AR [3]: potently induces time- and dose-dependent degradation; degradation of the ER or PR (ER or PR): not the ER or PR; degradation of the AR (AR): induces degradation of the AR; colony formation [4]: inhibits the growth; growth inhibition (MTT cell viability) [5]: significant growth inhibition; colony formation (PC3 cell): only mild effects; colony formation [6]: inhibits the growth; degradation of full-length AR and AR-V7 (full-length AR and AR-V7): potently induces time- and dose-dependent degradation; degradation of other proteins, including actin or the GR (actin or the GR): does not affect the degradation; AR gene signature (gene set expression analysis) [7]: marked decrease in the AR gene signature; colony formation [8]: inhibits the growth; colony formation (AR-null DU145 cells): limited impact on colony formation
3 | C=CC(=O)NC(=O)/C(=C/c1ccc(Cl)cc1)c1ccc(F)cc1 [JN139] | LOW | LOW | –
4 | CCC1=C(C)CN(C(=O)/C(=C/c2ccc(Cl)cc2)c2ccccc2)C1=O [JN140, (E)-1-(3-(4-Chlorophenyl)-2-phenylacryloyl)-3-ethyl-4-methyl-1,5-dihydro-2H-pyrrol-2-one] | HIGH | HIGH | –
5 | O=C1CCCN1C(=O)/C(=C/c1ccc(Cl)cc1)c1ccccc1 [JN141] | LOW | LOW | –
6 | O=C(C1=CCN(Cc2ccccc2)CC1)/C(=C/c1ccc(Cl)cc1)c1ccccc1 [JN142, (E)-1-(1-Benzyl-1,2,3,6-tetrahydropyridin-4-yl)-3-(4-chlorophenyl)-2-phenylprop-2-en-1-one] | LOW | LOW | –
7 | COC1=CC(=O)N(C(=O)/C(=C/c2ccc(Cl)cc2)c2ccc(F)cc2F)C1 [JN143] | LOW | LOW | –
8 | C#CCNC(=O)/C(=C/c1ccc(Cl)cc1)c1ccc(F)cc1F [JN144, (E)-3-(4-Chlorophenyl)-2-(2,4-difluorophenyl)-N-(prop-2-yn-1-yl)acrylamide] | LOW | LOW | –
9 | NS(=O)(=O)NC(=O)/C(=C/c1ccc(Cl)cc1)c1ccc(F)cc1F [JN145, (E)-3-(4-Chlorophenyl)-2-(2,4-difluorophenyl)-N-sulfamoylacrylamide] | LOW | LOW | –
10 | N#CC1(NC(=O)/C(=C/c2ccc(Cl)cc2)c2ccc(F)cc2F)CC1 [JN146] | LOW | LOW | –
11 | O=C(NC(=O)C1CC1)/C(=C/c1ccc(Cl)cc1)c1ccc(F)cc1F [JN147, (E)-N-(3-(4-Chlorophenyl)-2-(2,4-difluorophenyl)acryloyl)cyclopropanecarboxamide] | LOW | LOW | –
12 | Cc1cnc(/C(=C/c2ccc(Cl)cc2)c2ccc(F)cc2F)o1 [JN148, (E)-2-(2-(4-Chlorophenyl)-1-(2,4-difluorophenyl)vinyl)-5-methyloxazole] | LOW | LOW | –
13 | C=C1CN=C(/C(=C/c2ccc(Cl)cc2)c2ccc(F)cc2F)O1 [JN149, (E)-2-(2-(4-Chlorophenyl)-1-(2,4-difluorophenyl)vinyl)-5-methylene-4,5-dihydrooxazole] | LOW | LOW | –
14 | C=C(Cc1ccccc1)C(=O)NC(=O)/C(=C/c1ccc(Cl)cc1)c1ccc(F)cc1F [JN150] | HIGH | HIGH | –
15 | C=C(C)C(=O)OCCOC(=O)/C(=C/c1ccc(Cl)cc1)c1ccc(F)cc1F [JN151] | LOW | LOW | –
16 | C=C(C)C(=O)NC(=O)/C(=C/c1ccc(Cl)cc1)c1ccc(C(F)(F)F)cc1 [JN152] | HIGH | LOW | CREB-TAD [9]: HIGH; AR-TAD [10]: HIGH; MMTV (androgen receptor (AR)): HIGH; GRE [11]: HIGH
17 | C=C(C)C(=O)NC(=O)/C(=C/c1ccc(C(F)(F)F)nc1)c1ccccc1 [JN153] | HIGH | HIGH | –
18 | O=C(/C=C/C(F)(F)F)NC(=O)/C(=C/c1ccc(Cl)cc1)c1ccc(F)cc1F [JN154] | HIGH | LOW | –
19 | O=C(/C=C/c1ccccc1)NC(=O)/C(=C/c1ccc(Cl)cc1)c1ccc(F)cc1F [JN155] | LOW | LOW | –
20 | C=C(C)C(=O)NCCCNC(=O)/C(=C/c1ccc(Cl)cc1)c1ccc(F)cc1F [JN156, (E)-3-(4-Chlorophenyl)-2-(2,4-difluorophenyl)-N-(3-methacrylamidopropyl)acrylamide] | LOW | LOW | –
21 | CNC(=O)c1ccc(N2C(=S)N(c3ccc(C#N)c(C(F)(F)F)c3)C(=O)C2(C)C)cc1F [MDV3100, reference compound] | HIGH | LOW | AP1 (AP1 (jun and fos family)): HIGH; CREB-TAD [9]: LOW; JUN-TAD [12]: LOW; GRE [11]: LOW
